Reference: ChEMBL document CHEMBL3352746, “Synthesis and anticancer activity of quinopimaric and maleopimaric acids’ derivatives” (Bioorg Med Chem, 2014)

Experiments:
SNB-19 = assay: Growth inhibition of human SNB19 cells; format: functional
P388 = assay: Antitumor activity against mouse P388 cells implanted in mouse assessed as increase in life span at 60 mg/kg, ip dosed daily for 5 days administered 24 hrs after tumor implantation; format: functional; conditions: route intraperitoneal
KM12 = assay: Growth inhibition of human KM12 cells; format: functional
IGROV-1 = assay: Growth inhibition of human IGROV1 cells; format: functional
[1] = Growth inhibition of human SF295 cells; format: functional
Mus musculus [2] = assay: Toxicity in mouse LLC cells implanted mouse assessed as mouse mortality at 40 mg/kg, ip dosed daily for 5 days; format: organism-based; parameters: dose 40 mg/kg, route intraperitoneal; conditions: in vivo, 120 h
[3] = Growth inhibition of human UO31 cells; format: functional
[4] = Antitumor activity against mouse AKATOL cells implanted in mouse assessed as tumor growth inhibition at 40 mg/kg, ip dosed daily for 5 days measured 5 days after treatment termination; format: functional; conditions: 120 h, route intraperitoneal, read-out: TGI
[5] = Growth inhibition of human Hs 578T cells; format: functional
[6] = Growth inhibition of human RPMI8226 cells; format: functional, RPMI-8226
SK-MEL-28 = assay: Growth inhibition of human SK-MEL-28 cells; format: functional
[7] = tested on: Lewis lung carcinoma cell line; assay: Antitumor activity against mouse LLC cells implanted in mouse assessed as tumor growth inhibition at 40 mg/kg, ip dosed daily for 5 days measured 19 days after treatment termination; format: functional; conditions: route intraperitoneal, read-out: TGI
NCI-H522 = assay: Growth inhibition of human NCI-H522 cells; format: functional
[8] = Growth inhibition of human COLO205 cells; format: functional
SN12C = assay: Growth inhibition of human SN12C cells; format: functional
Mus musculus [9] = assay: Toxicity in mouse P388 cells implanted mouse assessed as mean spleen weight at 20 mg/kg, ip dosed daily for 5 days administered 24 hrs after tumor implantation; format: organism-based; parameters: dose 20 mg/kg, route intraperitoneal; conditions: in vivo
CAKI-1 = assay: Growth inhibition of human CAKI-1 cells; format: functional
CCRF-CEM = assay: Growth inhibition of human CCRF-CEM cells; format: functional
[10] = tested on: Lewis lung carcinoma cell line; assay: Antitumor activity against mouse LLC cells implanted in mouse assessed as tumor growth inhibition at 40 mg/kg, ip dosed daily for 5 days measured 1 day after treatment termination; format: functional; conditions: route intraperitoneal, read-out: TGI
Mus musculus [11] = assay: Toxicity in mouse P388 cells implanted mouse assessed as mean ascites volume at 40 mg/kg, ip dosed daily for 5 days administered 24 hrs after tumor implantation; format: organism-based; parameters: dose 40 mg/kg, route intraperitoneal; conditions: in vivo
[12] = tested on: Lewis lung carcinoma cell line; assay: Antitumor activity against mouse LLC cells implanted in mouse assessed as tumor growth inhibition at 40 mg/kg, ip dosed daily for 5 days measured 5 days after treatment termination; format: functional; conditions: 120 h, route intraperitoneal, read-out: TGI
[13] = Antitumor activity against mouse CA-755 cells implanted in mouse assessed as tumor growth inhibition at 40 mg/kg, ip dosed daily for 5 days measured 16 days after treatment termination; format: functional; conditions: CA-755, ip, route intraperitoneal, read-out: TGI
MCF7 = assay: Growth inhibition of human MCF7 cells; format: functional
[14] = tested on: Lewis lung carcinoma cell line; assay: Antitumor activity against mouse LLC cells implanted in mouse assessed as increase in life span at 40 mg/kg, ip dosed daily for 5 days; format: functional; conditions: 120 h, route intraperitoneal
Mus musculus [15] = assay: Toxicity in mouse P388 cells implanted mouse assessed as mean spleen weight at 60 mg/kg, ip dosed daily for 5 days administered 24 hrs after tumor implantation; format: organism-based; parameters: dose 60 mg/kg, route intraperitoneal; conditions: in vivo
Mus musculus [16] = assay: Toxicity in mouse P388 cells implanted mouse assessed as mouse mortality at 40 mg/kg, ip dosed daily for 5 days administered 24 hrs after tumor implantation; format: organism-based; parameters: dose 40 mg/kg, route intraperitoneal; conditions: in vivo
HL-60(TB) = assay: Growth inhibition of human HL-60(TB) cells; format: functional
[17] = Antitumor activity against mouse AKATOL cells implanted in mouse assessed as tumor growth inhibition at 40 mg/kg, ip dosed daily for 5 days measured 8 to 9 days after treatment termination; format: functional; conditions: route intraperitoneal, read-out: TGI
A498 = assay: Growth inhibition of human A498 cells; format: functional
[18] = Antitumor activity against mouse CA-755 cells implanted in mouse assessed as tumor growth inhibition at 40 mg/kg, ip dosed daily for 5 days measured 1 day after treatment termination; format: functional; conditions: CA-755, ip, route intraperitoneal, read-out: TGI
Mus musculus [19] = assay: Toxicity in mouse CA-755 cells implanted mouse assessed as mouse mortality at 40 mg/kg, ip dosed daily for 5 days; format: organism-based; parameters: dose 40 mg/kg, route intraperitoneal; conditions: in vivo, 120 h
T47D = assay: Growth inhibition of human T47D cells; format: functional
HOP-62 = assay: Growth inhibition of human HOP62 cells; format: functional
[20] = Growth inhibition of human HCT116 cells; format: functional
M14 = assay: Growth inhibition of human M14 cells; format: functional
MDA-MB-231 = assay: Growth inhibition of human MDA-MB-231 cells; format: functional
SNB-75 = assay: Growth inhibition of human SNB75 cells; format: functional
[21] = tested on: Lewis lung carcinoma cell line; assay: Antitumor activity against mouse LLC cells implanted in mouse assessed as tumor growth inhibition at 40 mg/kg, ip dosed daily for 5 days measured 16 days after treatment termination; format: functional; conditions: route intraperitoneal, read-out: TGI
SW-620 = assay: Growth inhibition of human SW620 cells; format: functional
[22] = Antitumor activity against mouse AKATOL cells implanted in mouse assessed as tumor growth inhibition at 40 mg/kg, ip dosed daily for 5 days measured 16 days after treatment termination; format: functional; conditions: route intraperitoneal, read-out: TGI
SK-OV-3 = assay: Growth inhibition of human SKOV3 cells; format: functional
[23] = read-out: pLC50 (the source's name) (converted)

COC(=O)[C@]1(C)CCC[C@]2(C)[C@H]3C[C@H]4C(C(C)C)=C[C@]3(CC[C@H]21)[C@@H]1/C(=N/O)CC/C(=N\O)[C@@H]14
GI50 (SNB-19): 11.5 µM
CC50 (SNB-19; [23]): 55 µM
TGI (SNB-19; read-out: pTGI (converted)): 25.1 µM
ILS at 60 mg/kg (P388): -10%
GI50 (KM12): 3.39 µM
CC50 (KM12; [23]): 34.7 µM
TGI (KM12; read-out: pTGI (converted)): 10.7 µM
GI50 (IGROV-1; IGROV-1): 4.57 µM
CC50 (IGROV-1; IGROV-1, read-out: pLC50 (converted)): > 100 µM
TGI (IGROV-1; IGROV-1, read-out: pTGI (converted)): 21.9 µM
GI50 ([1]; SF-295): 5.89 µM
CC50 ([1]; SF-295, read-out: pLC50 (the source's name) (converted)): 64.6 µM
TGI ([1]; SF-295, read-out: pTGI (converted)): 21.4 µM
Activity (Mus musculus [2]): Non-toxic
GI50 ([3]; UO-31): 4.9 µM
CC50 ([3]; UO-31, read-out: pLC50 (the source's name) (converted)): 75.9 µM
TGI ([3]; UO-31, read-out: pTGI (converted)): 20.9 µM
inhibition in vivo at 40 mg/kg [4]: 60%
GI50 [5]: 0.01 µM
CC50 [5, 23]: 11.2 µM
TGI ([5]; read-out: pTGI (converted)): 2.04 µM
GI50 ([6]; RPMI-8226): 2.09 µM
CC50 ([6]; RPMI-8226, read-out: pLC50 (converted)): > 100 µM
TGI ([6]; RPMI-8226, read-out: pTGI (converted)): 4.79 µM
GI50 (SK-MEL-28): 9.33 µM
CC50 (SK-MEL-28; [23]): 53.7 µM
TGI (SK-MEL-28; read-out: pTGI (converted)): 22.9 µM
inhibition in vivo at 40 mg/kg [7]: 37%
GI50 (NCI-H522): 3.8 µM
CC50 (NCI-H522; [23]): 93.3 µM
TGI (NCI-H522; read-out: pTGI (converted)): 17.8 µM
GI50 ([8]; COLO 205): 2.19 µM
CC50 ([8]; COLO 205, read-out: pLC50 (the source's name) (converted)): 8.51 µM
TGI ([8]; COLO 205, read-out: pTGI (converted)): 4.37 µM
GI50 (SN12C): 1.86 µM
CC50 (SN12C; [23]): 8.13 µM
TGI (SN12C; read-out: pTGI (converted)): 3.89 µM
Activity (Mus musculus [9]): 101 mg
GI50 (CAKI-1; CAKI-1): 7.08 µM
CC50 (CAKI-1; CAKI-1, read-out: pLC50 (converted)): > 100 µM
TGI (CAKI-1; CAKI-1, read-out: pTGI (converted)): 32.4 µM
GI50 (CCRF-CEM): 2.4 µM
CC50 (CCRF-CEM; [23]): 50.1 µM
TGI (CCRF-CEM; read-out: pTGI (converted)): 7.08 µM
inhibition in vivo at 40 mg/kg [10]: 47%
Activity (Mus musculus [11]): 1.2 mL
inhibition in vivo at 40 mg/kg [12]: 33%
inhibition in vivo at 40 mg/kg [13]: 32%
GI50 (MCF7): 1.78 µM
CC50 (MCF7; [23]): 9.55 µM
TGI (MCF7; read-out: pTGI (converted)): 4.07 µM
ILS at 40 mg/kg [14]: 18%
Activity (Mus musculus [15]): 144 mg
Activity (Mus musculus [16]): Non-toxic
GI50 (HL-60(TB)): 1.95 µM
CC50 (HL-60(TB); [23]): 36.3 µM
TGI (HL-60(TB); read-out: pTGI (converted)): 4.57 µM
inhibition in vivo at 40 mg/kg [17]: 41%
GI50 (A498): 2.24 µM
CC50 (A498; [23]): 25.1 µM
TGI (A498; read-out: pTGI (converted)): 6.76 µM
inhibition in vivo at 40 mg/kg [18]: 83%
Activity (Mus musculus [19]): Non-toxic
GI50 (T47D): 1.91 µM
CC50 (T47D; [23]): 24.5 µM
TGI (T47D; read-out: pTGI (converted)): 4.68 µM
GI50 (HOP-62): 15.1 µM
CC50 (HOP-62; [23]): 95.5 µM
TGI (HOP-62; read-out: pTGI (converted)): 38 µM
GI50 ([20]; HCT-116): 2.75 µM
CC50 ([20]; HCT-116, read-out: pLC50 (the source's name) (converted)): 47.9 µM
TGI ([20]; HCT-116, read-out: pTGI (converted)): 8.51 µM
GI50 (M14): 5.25 µM
CC50 (M14; [23]): 55 µM
TGI (M14; read-out: pTGI (converted)): 18.6 µM
GI50 (MDA-MB-231): 7.24 µM
CC50 (MDA-MB-231; [23]): 56.2 µM
TGI (MDA-MB-231; read-out: pTGI (converted)): 22.4 µM
GI50 (SNB-75): 4.9 µM
CC50 (SNB-75; [23]): 63.1 µM
TGI (SNB-75; read-out: pTGI (converted)): 20.4 µM
inhibition in vivo at 40 mg/kg [21]: 34%
GI50 (SW-620): 3.47 µM
CC50 (SW-620; [23]): 49 µM
TGI (SW-620; read-out: pTGI (converted)): 14.5 µM
inhibition in vivo at 40 mg/kg [22]: 47%
GI50 (SK-OV-3): 10.2 µM
CC50 (SK-OV-3; [23]): 47.9 µM
TGI (SK-OV-3; read-out: pTGI (converted)): 22.4 µM
